Experimental data: US20250163104A1, “MACROCYCLIC IMMUNOMODULATORS” (priority 2021, published 2025)
*1 amine or outer side, *2 acyl side, *3 side chain or, on linkers, in order; H or OH if unused. Where a SMILES comes first, the peptide text is derived from it. Bridges are numbered along the chain shown (N, C = ends). [ ]: non-standard residue; d: D form. The star is where a group is joined. ξ: configuration not given here. X3 = O=C([C@H](CCCNC[C@@H](O)[C@H](O)[C@H](O)[C@@H](O)[C@H](O)CO)N[*:1])[*:2]; X4 = O=C([C@H](CCNC[C@@H](O)[C@H](O)[C@H](O)[C@@H](O)[C@H](O)CO)N[*:1])[*:2]; Phe(4-COOH) = N[C@@H](Cc1ccc(C(=O)O)cc1)C(=O)O; Bip = N[C@@H](Cc1ccc(-c2ccccc2)cc1)C(=O)O; Phe(3-CN) = N#Cc1cccc(C[C@H](N)C(=O)O)c1; Phe(3-Me) = Cc1cccc(C[C@H](N)C(=O)O)c1; 4Pal = N[C@@H](Cc1ccncc1)C(=O)O; Cha = N[C@@H](CC1CCCCC1)C(=O)O; Cit = NC(=O)NCCC[C@H](N)C(=O)O; Thr(3ξ) = CC(O)[C@H](N)C(=O)O; Carboxymethyl = O=C(O)C*; Nle = CCCC[C@H](N)C(=O)O; Orn = NCCC[C@H](N)C(=O)O; Pra = C#CC[C@H](N)C(=O)O; Dab = NCC[C@H](N)C(=O)O; Nva = CCC[C@H](N)C(=O)O; Dap = NC[C@H](N)C(=O)O; ξPra = C#CCC(N)C(=O)O

Biological target: T1, human PD-1 / PD-L1-Ig binding on Jurkat cell line over-expressing human PD-1 (Jurkat-PD-1) (Homo sapiens, UniProt Q15116)
T1 construct: expressed in transfected cells; host or cells: Jurkat
T1 sequence (Q15116 25-288): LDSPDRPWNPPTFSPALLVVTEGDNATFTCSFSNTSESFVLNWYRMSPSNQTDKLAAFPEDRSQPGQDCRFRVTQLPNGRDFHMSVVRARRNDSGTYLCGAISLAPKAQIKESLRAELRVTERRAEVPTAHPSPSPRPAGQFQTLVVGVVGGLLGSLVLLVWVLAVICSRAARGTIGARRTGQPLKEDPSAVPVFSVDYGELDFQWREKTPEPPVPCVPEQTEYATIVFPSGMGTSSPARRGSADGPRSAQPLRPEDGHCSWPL
Assay: Jurkat-PD-1 Cell Binding High-Content Screening Assay (CBA)
Type: cell-based
Details: Jurkat-PD-1 cells, PE-labeled PD-L1-Ig 20 nM final; read-out: Jurkat HPD1_PDL1 IC50
In short: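 PE-PD-L1-Ig 20 nM final; cells in DMEM/10% FCS; cpd pre-incubation 2 h, 37° C; ligand 1 h; PFA fix + Hoechst 33342; high-content imaging read-out.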

Point of comparison: `CC(C)C[C@H]1NC(=O)[C@H](CCCN)NC(=O)[C@H](CCCNC(N)=O)NC(=O)[C@H](Cc2ccc(-c3ccccc3)cc2)NC(=O)[C@H](C(C)C)NC(=O)[C@H](Cc2c[nH]c3ccccc23)NC(=O)[C@H](CC(=O)O)NC(=O)[C@H](Cc2cccc(C#N)c2)NC(=O)[C@H](CN)NC(=O)CSC[C@@H](C(=O)N[C@@H](C)C(N)=O)NC(=O)[C@H]([C@@H](C)O)NC(=O)[C@H](C(C)C)NC(=O)[C@H](CC2CCCCC2)NC(=O)[C@H](CCN)NC1=O` [Compound 2093] ({CH2CO}-[Dap][Phe(3-CN)]DWV[Bip][Cit][Orn][dL][Dab][Cha]VTCA-NH2; thioether N-14), IC50 12 nM. Against it:
- CC[C@H](C)[C@@H]1NC(=O)[C@H](Cc2ccc(-c3ccccc3)cc2)NC(=O)[C@H](C(C)C)NC(=O)[C@H](Cc2c[nH]c3ccccc23)NC(=O)[C@H](CC(=O)O)NC(=O)[C@H](Cc2ccc(OCC(=O)O)cc2)NC(=O)[C@H](Cc2ccncc2)NC(=O)CSC[C@@H](C(=O)N[C@@H](C)C(N)=O)NC(=O)[C@H]([C@@H](C)O)NC(=O)[C@H](C(C)C)NC(=O)[C@H](CC2CCCCC2)NC(=O)[C@H](Cc2cnc[nH]2)NC(=O)[C@@H](CC(C)C)NC(=O)[C@H](CCCN)NC1=O [Compound 1608] — 2.7-fold higher, 32.2 nM
- C#CC[C@H](NC(=O)[C@H](CCN)NC(=O)[C@@H]1CSCC(=O)N[C@@H](CCCN)C(=O)N[C@@H](Cc2ccc(OCC(=O)O)cc2)C(=O)N[C@@H](CC(=O)O)C(=O)N[C@@H](Cc2cccc(C)c2)C(=O)N[C@@H](Cc2ccc(OCC(=O)O)cc2)C(=O)N[C@@H](Cc2ccc(-c3ccccc3)cc2)C(=O)N[C@@H](Cc2ccc(OCC(=O)O)cc2)C(=O)N[C@@H](CCCN)C(=O)N[C@H](CC(C)C)C(=O)N[C@@H](CCN)C(=O)N[C@@H](CC2CCCCC2)C(=O)N[C@@H](C(C)C)C(=O)N[C@@H](CO)C(=O)N1)C(N)=O [Compound 1855] ({CH2CO}-[Orn]Y(Carboxymethyl)D[Phe(3-Me)]Y(Carboxymethyl)[Bip]Y(Carboxymethyl)[Orn][dL][Dab][Cha]VSC[Dab][Pra]-NH2; thioether N-14) — 1.8-fold lower, 6.8 nM
- C#CC[C@H](NC(=O)[C@@H]1CSCC(=O)N[C@@H](CCC)C(=O)N[C@@H](Cc2ccc(OCC(=O)O)cc2)C(=O)N[C@@H](CC(=O)O)C(=O)N[C@@H](Cc2cccc(C)c2)C(=O)N[C@@H](Cc2ccc(OCC(=O)O)cc2)C(=O)N[C@@H](Cc2ccc(-c3ccccc3)cc2)C(=O)N[C@@H](Cc2ccc(OCC(=O)O)cc2)C(=O)N[C@@H](CCCNC[C@@H](O)[C@H](O)[C@H](O)[C@@H](O)[C@H](O)CO)C(=O)N[C@H](CC(C)C)C(=O)N[C@@H](CCNC[C@@H](O)[C@H](O)[C@H](O)[C@@H](O)[C@H](O)CO)C(=O)N[C@@H](CC2CCCCC2)C(=O)N[C@@H](C(C)C)C(=O)N[C@@H](CCC(=O)O)C(=O)N1)C(=O)O [Compound 2700] ({CH2CO}-[Nva]Y(Carboxymethyl)D[Phe(3-Me)]Y(Carboxymethyl)[Bip]Y(Carboxymethyl)[X3][dL][X4][Cha]VEC[Pra]-OH; thioether N-14) — 5.2-fold higher, 62.3 nM
- CC(C)C[C@@H]1NC(=O)[C@H](Cc2c[nH]c3ccccc23)NC(=O)[C@H](CC(=O)O)NC(=O)[C@H](Cc2ccncc2)NC(=O)[C@H](Cc2ccc(OCC(=O)O)cc2)NC(=O)CSC[C@@H](C(=O)NCC(N)=O)NC(=O)[C@H](CO)NC(=O)[C@H](C(C)C)NC(=O)[C@H](CC(C)C)NC(=O)[C@H](CC(N)=O)NC(=O)[C@@H](CC(C)C)NC(=O)[C@H](CCCN)NC(=O)[C@H](C(C)C)NC(=O)[C@H](Cc2ccc(-c3ccccc3)cc2)NC1=O [Compound 1286] ({CH2CO}-Y(Carboxymethyl)[4Pal]DWL[Bip]V[Orn][dL]NLVSCG-NH2; thioether N-14) — 4.2-fold higher, 50.3 nM
- C#CCC(NC(=O)[C@H](CCN)NC(=O)[C@@H]1CSCC(=O)N[C@@H](Cc2ccncc2)C(=O)N[C@@H](Cc2ccc(OCC(=O)O)cc2)C(=O)N[C@@H](CC(=O)O)C(=O)N[C@@H](Cc2c[nH]c3ccccc23)C(=O)N[C@@H](C(C)C)C(=O)N[C@@H](Cc2ccc(-c3ccccc3)cc2)C(=O)N[C@@H]([C@@H](C)CC)C(=O)N[C@@H](CCCN)C(=O)N[C@H](CC(C)C)C(=O)N[C@@H](CCN)C(=O)N[C@@H](CC(C)C)C(=O)N[C@@H](C(C)C)C(=O)N[C@@H]([C@@H](C)O)C(=O)N1)C(N)=O (stereo partly drawn) [Compound 1765] ({CH2CO}-[4Pal]Y(Carboxymethyl)DWV[Bip]I[Orn][dL][Dab]LVTC[Dab][ξPra]-NH2; thioether N-14) — 1.8-fold higher, 21.4 nM
- CCC(C)[C@@H]1NC(=O)[C@H](Cc2ccc(-c3ccccc3)cc2)NC(=O)[C@H](C(C)C)NC(=O)[C@H](Cc2cc(C)ccc2OC)NC(=O)[C@H](CC(=O)O)NC(=O)[C@H](Cc2ccc(OCC(=O)O)cc2)NC(=O)[C@H](CN)NC(=O)CSC[C@@H](C(=O)N[C@@H](C)C(N)=O)NC(=O)[C@H]([C@@H](C)O)NC(=O)[C@H](C(C)C)NC(=O)[C@H](CC2CCCCC2)NC(=O)[C@H](CCN)NC(=O)[C@@H](CC(C)C)NC(=O)[C@H](CCCN)NC1=O (stereo partly drawn) [Compound 2249] — 11-fold higher, 134 nM
- Cc1cccc(C[C@@H]2NC(=O)[C@H](CC(=O)O)NC(=O)[C@H](Cc3ccc(OCC(=O)O)cc3)NC(=O)[C@H](C(C)O)NC(=O)CSC[C@@H](C(=O)N[C@H](CC(N)=O)C(N)=O)NC(=O)[C@H](C(C)O)NC(=O)[C@H](C(C)C)NC(=O)[C@H](CC3CCCCC3)NC(=O)[C@H](CCN)NC(=O)[C@@H](CC(C)C)NC(=O)[C@H](CCCN)NC(=O)[C@H](Cc3ccc(OCC(=O)O)cc3)NC(=O)[C@H](Cc3ccc(-c4ccccc4)cc3)NC(=O)[C@H](Cc3ccc(OCC(=O)O)cc3)NC2=O)c1 (stereo partly drawn) [Compound 2640] ({CH2CO}-[Thr(3ξ)]Y(Carboxymethyl)D[Phe(3-Me)]Y(Carboxymethyl)[Bip]Y(Carboxymethyl)[Orn][dL][Dab][Cha]V[Thr(3ξ)]C[dN]-NH2; thioether N-14) — 2.9-fold higher, 35 nM
- CCCC[C@@H]1NC(=O)[C@H](CCN)NC(=O)[C@@H](CC(C)C)NC(=O)[C@H](CCCN)NC(=O)[C@H](CCCNC(N)=O)NC(=O)[C@H](Cc2ccc(-c3ccccc3)cc2)NC(=O)[C@H](C(C)C)NC(=O)[C@H](Cc2cccc(C)c2)NC(=O)[C@H](CC(=O)O)NC(=O)[C@H](Cc2ccc(OCC(=O)O)cc2)NC(=O)[C@H](CN)NC(=O)CSC[C@@H](C(=O)N[C@@H](C)C(N)=O)NC(=O)[C@H]([C@@H](C)O)NC(=O)[C@H](C(C)C)NC1=O [Compound 1207] ({CH2CO}-[Dap]Y(Carboxymethyl)D[Phe(3-Me)]V[Bip][Cit][Orn][dL][Dab][Nle]VTCA-NH2; thioether N-14) — 1.8-fold lower, 6.8 nM
- CC(C)C[C@@H]1NC(=O)[C@H](Cc2c[nH]c3ccccc23)NC(=O)[C@H](CC(=O)O)NC(=O)[C@H](Cc2ccc(O)cc2)NC(=O)[C@H](Cc2ccccc2)NC(=O)CSC[C@@H](C(=O)N[C@@H](C)C(N)=O)NC(=O)[C@H](CO)NC(=O)[C@H](C(C)C)NC(=O)[C@H](CC(C)C)NC(=O)[C@H](CCN)NC(=O)[C@@H](CC(C)C)NC(=O)[C@H](CCN)NC(=O)[C@H](CCC(=O)O)NC(=O)[C@H](Cc2ccc(-c3ccccc3)cc2)NC1=O [Compound 1229] ({CH2CO}-FYDWL[Bip]E[Dab][dL][Dab]LVSCA-NH2; thioether N-14) — within 1.5-fold, 14.5 nM
- Cc1cccc(C[C@@H]2NC(=O)[C@H](CC(=O)O)NC(=O)[C@H](Cc3ccc(C(=O)O)cc3)NC(=O)[C@H](Cc3ccc(OCC(=O)O)cc3)NC(=O)CSC[C@@H](C(=O)N[C@@H](C)C(N)=O)NC(=O)[C@H]([C@@H](C)O)NC(=O)[C@H](C(C)C)NC(=O)[C@H](CC3CCCCC3)NC(=O)[C@H](CCN)NC(=O)[C@@H](CC(C)C)NC(=O)[C@H](CCCN)NC(=O)[C@H](CN)NC(=O)[C@H](Cc3ccc(-c4ccccc4)cc3)NC(=O)[C@H](C(C)C)NC2=O)c1 [Compound 1416] — within 1.5-fold, 8.5 nM
- Cc1cccc(C[C@@H]2NC(=O)[C@H](CC(=O)O)NC(=O)[C@H](Cc3ccncc3)NC(=O)[C@H](CN)NC(=O)CSC[C@@H](C(=O)N[C@@H](C)C(N)=O)NC(=O)[C@H]([C@@H](C)O)NC(=O)[C@H](C(C)C)NC(=O)[C@H](CC(C)C)NC(=O)[C@H](CCN)NC(=O)[C@@H](CC(C)C)NC(=O)[C@H](CCCN)NC(=O)[C@H](CCCNC(N)=O)NC(=O)[C@H](Cc3ccc(-c4ccccc4)cc3)NC(=O)[C@H](C(C)C)NC2=O)c1 [Compound 1239] ({CH2CO}-[Dap][4Pal]D[Phe(3-Me)]V[Bip][Cit][Orn][dL][Dab]LVTCA-NH2; thioether N-14) — within 1.5-fold, 14.3 nM
- Cc1cccc(C[C@@H]2NC(=O)[C@H](CC(=O)O)NC(=O)[C@H](Cc3ccc(C(=O)O)cc3)NC(=O)[C@H](Cc3ccncc3)NC(=O)CSC[C@@H](C(=O)N[C@H](CC(N)=O)C(N)=O)NC(=O)[C@H](CO)NC(=O)[C@H](C(C)C)NC(=O)[C@H](CC3CCCCC3)NC(=O)[C@H](CCN)NC(=O)[C@@H](CC(C)C)NC(=O)[C@H](CCCN)NC(=O)[C@H](Cc3ccc(O)cc3)NC(=O)[C@H](Cc3ccc(-c4ccccc4)cc3)NC(=O)[C@H](Cc3ccc(O)cc3)NC2=O)c1 [Compound 2286] ({CH2CO}-[4Pal][Phe(4-COOH)]D[Phe(3-Me)]Y[Bip]Y[Orn][dL][Dab][Cha]VSC[dN]-NH2; thioether N-14) — within 1.5-fold, 8.9 nM
- CC[C@H](C)[C@@H]1NC(=O)[C@H](Cc2c[nH]c3ccccc23)NC(=O)[C@H](CC(=O)O)NC(=O)[C@H](Cc2ccc(OCC(=O)O)cc2)NC(=O)[C@H](CN)NC(=O)CSC[C@@H](C(=O)N[C@@H](C)C(N)=O)NC(=O)[C@H]([C@@H](C)O)NC(=O)[C@H](C(C)C)NC(=O)[C@H](CC2CCCCC2)NC(=O)[C@H](CCN)NC(=O)[C@@H](CC(C)C)NC(=O)[C@H](CCCN)NC(=O)[C@H](C(C)C)NC(=O)[C@H](Cc2ccc(-c3ccccc3)cc2)NC1=O [Compound 1733] ({CH2CO}-[Dap]Y(Carboxymethyl)DWI[Bip]V[Orn][dL][Dab][Cha]VTCA-NH2; thioether N-14) — within 1.5-fold, 16.7 nM
- CC(C)C[C@H]1NC(=O)[C@H](CCCN)NC(=O)[C@H](CCC(=O)O)NC(=O)[C@H](Cc2ccc(-c3ccccc3)cc2)NC(=O)[C@H](C(C)C)NC(=O)[C@H](Cc2ccc(F)c(F)c2)NC(=O)[C@H](CC(=O)O)NC(=O)[C@H](Cc2ccc(OCC(=O)O)cc2)NC(=O)[C@H](CN)NC(=O)CSC[C@@H](C(=O)N[C@@H](C)C(N)=O)NC(=O)[C@H]([C@@H](C)O)NC(=O)[C@H](C(C)C)NC(=O)[C@H](CC2CCCCC2)NC(=O)[C@H](CCN)NC1=O [Compound 2148] — within 1.5-fold, 17.5 nM
